Experimental data from ChEMBL document CHEMBL1136834 (Bioorg Med Chem Lett, 2009).
The source made the active and inactive calls. The calls are words filed in the database; no cut-off is given here.

Assays:
[1] = test system: CHO; experiment: Ratio of Ki for human delta opioid receptor to Ki for human kappa opioid receptor expressed in CHO cells; assay type: cell-based
[2] = molecular target: T1, Mu-type opioid receptor (Homo sapiens, UniProt P35372); experiment: Displacement of [3H]DAMGO from human mu opioid receptor expressed in CHO cells; assay type: cell-based
[3] = molecular target: T2, Kappa-type opioid receptor (Homo sapiens, UniProt P41145); experiment: Displacement of [3H]U69,593 from human kappa opioid receptor expressed in CHO cells; assay type: cell-based
[4] = test system: CHO; experiment: Ratio of Ki for human mu opioid receptor to Ki for human kappa opioid receptor expressed in CHO cells; assay type: cell-based
[5] = Displacement of [3H]Naltrindole from human delta opioid receptor expressed in CHO cells
[6] = molecular target: Delta-type opioid receptor (Homo sapiens, UniProt P41143); experiment: Displacement of [3H]Naltrindole from human delta opioid receptor expressed in CHO cells; assay type: cell-based
[7] = molecular target: T2, Kappa-type opioid receptor; experiment: Agonist activity at human kappa opioid receptor expressed in CHO cells assessed as stimulation of [35S]GTPgammaS binding; assay type: functional, cell-based
[8] = molecular target: T1, Mu-type opioid receptor; experiment: Antagonist activity at human mu opioid receptor expressed in CHO cells assessed as inhibition of DAMGO-induced [35S]GTPgammaS binding; assay type: functional, cell-based
[9] = molecular target: T1, Mu-type opioid receptor; experiment: Agonist activity at human mu opioid receptor expressed in CHO cells assessed as stimulation of [35S]GTPgammaS binding; assay type: functional, cell-based
[10] = molecular target: T1, Mu-type opioid receptor; experiment: Antagonist activity at human mu opioid receptor expressed in CHO cells assessed as inhibition of DAMGO-induced [35S]GTPgammaS binding at 10 uM; assay type: functional, cell-based
[11] = molecular target: T1, Mu-type opioid receptor; experiment: Agonist activity at human mu opioid receptor expressed in CHO cells assessed as stimulation of [35S]GTPgammaS binding relative to basal [35S]GTPgammaS binding; assay type: functional, cell-based

T2 sequence (P41145 whole entry): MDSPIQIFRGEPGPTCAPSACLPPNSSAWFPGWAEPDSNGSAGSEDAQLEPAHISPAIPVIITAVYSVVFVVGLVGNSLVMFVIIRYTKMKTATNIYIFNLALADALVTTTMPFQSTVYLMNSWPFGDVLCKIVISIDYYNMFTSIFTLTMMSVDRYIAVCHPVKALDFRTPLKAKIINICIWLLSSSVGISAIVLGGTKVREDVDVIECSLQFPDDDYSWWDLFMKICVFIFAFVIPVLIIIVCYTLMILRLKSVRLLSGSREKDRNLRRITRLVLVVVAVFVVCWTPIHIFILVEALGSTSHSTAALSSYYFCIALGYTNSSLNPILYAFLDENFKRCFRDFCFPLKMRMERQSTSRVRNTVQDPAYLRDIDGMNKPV
Delta-type opioid receptor, sequence (P41143 whole entry): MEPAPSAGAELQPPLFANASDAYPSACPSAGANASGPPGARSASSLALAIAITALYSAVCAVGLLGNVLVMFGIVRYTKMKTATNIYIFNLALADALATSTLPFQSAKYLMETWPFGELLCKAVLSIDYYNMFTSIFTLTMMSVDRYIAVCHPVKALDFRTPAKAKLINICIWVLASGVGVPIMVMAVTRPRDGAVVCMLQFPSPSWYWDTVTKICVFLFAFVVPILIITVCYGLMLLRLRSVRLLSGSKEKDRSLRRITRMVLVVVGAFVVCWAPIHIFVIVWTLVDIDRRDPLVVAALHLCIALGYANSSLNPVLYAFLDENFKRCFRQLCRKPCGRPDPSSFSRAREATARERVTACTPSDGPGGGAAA
T1 sequence (P35372 whole entry): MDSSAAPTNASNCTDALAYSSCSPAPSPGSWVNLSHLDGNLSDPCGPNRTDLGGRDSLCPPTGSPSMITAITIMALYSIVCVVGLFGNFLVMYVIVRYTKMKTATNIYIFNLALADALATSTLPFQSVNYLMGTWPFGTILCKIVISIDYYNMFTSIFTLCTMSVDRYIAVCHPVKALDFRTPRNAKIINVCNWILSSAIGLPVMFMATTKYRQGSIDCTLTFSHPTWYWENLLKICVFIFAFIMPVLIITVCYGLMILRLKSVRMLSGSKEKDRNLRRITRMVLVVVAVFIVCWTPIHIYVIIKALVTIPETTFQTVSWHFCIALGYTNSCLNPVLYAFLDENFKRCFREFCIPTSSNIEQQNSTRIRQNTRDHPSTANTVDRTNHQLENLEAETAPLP

SMILES | Ratio Ki [1] | Ki [2] | Ki [3] | Ratio Ki [4] | Ki [6] | EC50 [7] | Emax [11] | Imax [8] | other results
C[C@H]1C2Cc3cc4cc[nH]c4cc3[C@@]1(C)CCN2CC1CC1 | 36 | 18 nM | 7 nM | 3 | – | – | – | – | Ki [5]: 250 nM
C[C@H]1C2Cc3cc4[nH]cnc4cc3[C@@]1(C)CCN2CC1CC1 | – | 0.31 nM | 0.063 nM | – | 5.1 nM | 4.7 nM | – | – | IC50 ([8]; read-out: IC50): 170 nM; EC50 [9]: 9.8 nM
C[C@H]1C2Cc3cc4nc(O)[nH]c4cc3[C@@]1(C)CCN2CC1CC1 | 61 | 60 nM | 12 nM | 5 | 730 nM | – | – | – | –
C[C@H]1C2Cc3cc4nn[nH]c4cc3[C@@]1(C)CCN2CC1CC1 | – | – | – | – | – | 77 nM | < 20% | – | Imax [10]: 73%
C[C@H]1C2Cc3ccc4[nH]cnc4c3[C@@]1(C)CCN2CC1CC1 | 740 | 9.5 nM | 0.92 nM | 10 | 680 nM | – | – | – | –
C[C@H]1C2Cc3ccc4[nH]nnc4c3[C@@]1(C)CCN2CC1CC1 | – | – | – | – | – | 8.6 nM | 0.58% | 98% | IC50 ([8]; read-out: IC50): 99 nM
C[C@H]1[C@H]2Cc3ccc(O)cc3[C@]1(C)CCN2CC1CC1 [CYCLAZOCINE] | – | – | 0.07 nM | – | 2 nM | 1.3 nM | – | – | –
C[C@@H](NC(=O)[C@@H](N)Cc1ccc(O)cc1)C(=O)NCC(=O)N(C)[C@@H](Cc1ccccc1)C(=O)NCCO [DAMGO] | – | – | – | – | – | – | – | inactive | IC50 ([8]; cho): Not Active
C[C@H]1C2Cc3cc4nc[nH]c4cc3[C@@]1(C)CCN2CC1CC1 | – | – | – | – | – | – | 22% | 89% | –
Cc1nc2cc3c(cc2[nH]1)[C@@]1(C)CCN(CC2CC2)C(C3)[C@@H]1C | – | 0.77 nM | 0.05 nM | – | 18 nM | 5.8 nM | 55% | 100% | IC50 ([8]; read-out: IC50): 11000 nM; EC50 [9]: 18 nM
Cc1nc2c3c(ccc2[nH]1)CC1[C@H](C)[C@]3(C)CCN1CC1CC1 | 310 | 2.5 nM | 0.51 nM | 5 | 160 nM | – | – | – | –
